± gives the expanded uncertainty stated by the source.
Legend:
[1] = Crystal
[2] = Molar enthalpy of transition or fusion; conditions: Crystal; DSC

## O=C1c2cccc(Cl)c2C(=O)N1c1ccccc1 [3-chloro-N-phenylphthalimide]
[1]; 298.15 K, 101.33 kPa, flotation method
  mass density: 1397 ± 2 kg/m3
[1]; DTA
  Normal melting temperature: 192.90 ± 1.1 °C
[2]
  Molar enthalpy of transition or fusion: 6.96 ± 0.237 kcal/mol
